Counter-ions that a name gives are not always drawn.

The test system of this experiment is Wistar-strained male rats. Put plainly: Pharmacological test: ulcer inhibition against ethanol-induced ulcer in rats. The experiment is classed as in vivo. As to conditions: test compounds 50 mg/kg orally, one hour before 1 ml pure ethanol orally; compared with 0.5% tragacanth control. Here is the method:
Groups each consisting of 9 to 10 Wistar-strained male rats, each weighing about 200 g, were used in the test after their abstinence from food and water for 24 hours. Each test compound of this invention was administered in an amount of 50 mg/kg and a comparative medicine, "Neuer" (tradename: produced by Daiichi Pharmaceutical Co., Ltd.; effective component: centraxate) in an amount of 300 mg/kg. Each of the test compounds was administered orally to each rat of a first group and the comparative medicine to each rat of a second group one hour before oral administration of 1 ml of pure ethanol per rat. One hour later, each rat was sacrificed by exsanguination and its stomach was enucleated and fixed with 10 ml of 70% ethanol for about 30 minutes. A 0.5% tragacanth solution was administered to each rat of a third group. The ulcer was measured for length with naked eyes, and the test groups of rats were measured for their respective ulcer inhibition ratios in comparison with that for the third group.
Both the test compounds and the comparative medicine were each suspended or dissolved in a 0.5% tragacanth gum saline solution for use in the test. […] [formula]
Regarding `Fc1ccc2c(c1)Cc1sc(NCCCN3CCOCC3)nc1-2` [Example 1 (dihydrochloride), 2-(3-morpholinopropyl)amino-6-fluoro-8H-indeno[1.2-d]thiazole], the Ulcer inhibition ratio was 94.1%.
On to `Fc1ccc2c(c1)Cc1sc(NCCCN3CCOCC3)nc1-2` [Example 1 (maleic acid salt), 2-(3-morpholinopropyl)amino-6-fluoro-8H-indeno[1.2-d]thiazole], for which the Ulcer inhibition ratio is 89.5%.
Consider `Fc1ccc2c(c1)Cc1sc(NCCCN3CCOCC3)nc1-2` [Example 1, 2-(3-morpholinopropyl)amino-6-fluoro-8H-indeno[1.2-d]thiazole], for which the Ulcer inhibition ratio was 89.0%.
For `Fc1ccc2c(c1)CC1SC(=NCCCN3CCOCC3)N=C21` (stereo not drawn) [Example 2] the value was 93.5%.
Turning to `CC(C)CNc1nc2c(s1)Cc1ccccc1-2` [Example 7], the Ulcer inhibition ratio is on record as 79.0%.
For `Clc1ccc2c(c1)-c1nc(NCCN3CCOCC3)sc1C2` [Example 59] the value was 85.0%.
`c1ccc2c(c1)Cc1sc(NCCCN3CCOCC3)nc1-2` [Example 61]: the Ulcer inhibition ratio is recorded as 90.0%.
For `CC1c2sc(NCCCN3CCOCC3)nc2-c2cccc(Cl)c21` (stereo not drawn) [Example 83 (dihydrochloride)], the Ulcer inhibition ratio is given as 85.9%.
Turning to `c1ccc2c(c1)Cc1sc(NCCCCN3CCOCC3)nc1-2` [Example 92], the Ulcer inhibition ratio was determined as 83.4%.
